Laboratory results as given in the supplement of paper PMC4862054.

How the values were obtained:
[1] = system: SK-BR-3; test: normalised viability (% of control), CellTiter-Blue; higher = more viable cells (about 100 = DMSO control); conditions: incubation time: 72 h
Procedure, shortened: (§1)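 Seeded at 20 µl suspension per well onto compound-loaded 384-well plates, breast cancer cell lines were incubated 72 h. CellTiter-Blue fluorescence at 560/590 nm was then read, with each plate normalised to vehicle (100) and a positive kill control (0). Normalised viability is reported at a single listed concentration of the series.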

[2] = system: CAL-51; test: as above; conditions: incubation time: 72 h
Procedure, shortened: as §1

[3] = system: BT-474; test: as above; conditions: incubation time: 72 h
Procedure, shortened: as §1

[4] = system: MDA-MB-231; test: as above; conditions: incubation time: 72 h
Procedure, shortened: as §1

[5] = system: MFM-223; test: as above; conditions: incubation time: 72 h
Procedure, shortened: as §1

[6] = system: CAL-148; test: as above; conditions: incubation time: 72 h
Procedure, shortened: as §1

[7] = system: Hs578T; test: as above; conditions: incubation time: 72 h
Procedure, shortened: as §1

[8] = system: HCC1599; test: as above; conditions: incubation time: 72 h
Procedure, shortened: as §1

[9] = system: HCC1937; test: as above; conditions: incubation time: 72 h
Procedure, shortened: as §1

[10] = system: HDQ-P1; test: as above; conditions: incubation time: 72 h
Procedure, shortened: as §1

[11] = system: MDA-MB-468; test: as above; conditions: incubation time: 72 h
Procedure, shortened: as §1

[12] = system: MDA-MB-453; test: as above; conditions: incubation time: 72 h
Procedure, shortened: as §1

[13] = system: MDA-MB-436; test: as above; conditions: incubation time: 72 h
Procedure, shortened: as §1

[14] = system: CAL-85-1; test: as above; conditions: incubation time: 72 h
Procedure, shortened: as §1

[15] = system: DU-4475; test: as above; conditions: incubation time: 72 h
Procedure, shortened: as §1

[16] = system: BT-549; test: as above; conditions: incubation time: 72 h
Procedure, shortened: as §1

[17] = system: CAL-120; test: as above; conditions: incubation time: 72 h
Procedure, shortened: as §1

[18] = system: HCC1143; test: as above; conditions: incubation time: 72 h
Procedure, shortened: as §1

[19] = system: MFM-223; conditions: 72 h
Procedure, shortened: (§2)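 Compound dissolved in 5 µl medium was placed in 384-well plates before 20 µl of breast cancer cell suspension was added, and the plates were incubated for 72 h. Cells then received 2.5 µl CellTiter-Blue for 2 h at 37 °C, and fluorescence was read at 560/590 nm. EC50 values come from percent-inhibition dose-response fits that were censored at the highest concentration, with plates normalised to vehicle and a positive kill control and rows with a zero drug sensitivity score excluded.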

[20] = system: HCC1599; conditions: 72 h
Procedure, shortened: as §2

[21] = system: MDA-MB-436; conditions: 72 h
Procedure, shortened: as §2

[22] = system: BT-549; conditions: 72 h
Procedure, shortened: as §2

[23] = system: CAL-120; conditions: 72 h
Procedure, shortened: as §2

[24] = system: HCC1143; conditions: 72 h
Procedure, shortened: as §2

O=C1c2c(O)ccc(O)c2C(=O)c2c(NCCNCCO)ccc(NCCNCCO)c21 [Mitoxantrone]
normalised viability [%]
Conditions	0.3 nM	1 nM	3 nM	10 nM	100 nM	1000 nM
[1]	–	84.2	–	–	34.6	14.8
[2]	112	–	111	61.3	–	–
[3]	–	99.4	–	–	71.1	42
[4]	–	82	–	–	44.2	17.4
[5]	–	73.8	–	–	84.4	35.2
[6]	91.2	–	91.5	57.9	–	–
[7]	–	91.6	–	–	77.5	38.4
[8]	–	97.6	–	–	73.3	69.8
[9]	–	65.7	–	–	25	23.7
[10]	74.8	–	86.7	79.2	–	–
[11]	–	97.1	–	–	57.3	37.4
[12]	98.7	–	87.1	74	–	–
[13]	–	87.2	–	–	88.3	40.1
[14]	90.3	–	84.3	86.5	–	–
[15]	89	–	91.3	45.8	–	–
[16]	–	82.4	–	–	69	35.4
[17]	–	73.8	–	–	44.6	17.3
[18]	–	83.4	–	–	56.6	31.2

Conditions	EC50, CellTiter-Blue viability [nM]
[19]	522
[20]	52.1
[21]	684
[22]	350
[23]	15.9
[24]	11.8

Nc1ccccc1NC(=O)c1ccc(CNc2nccc(-c3cccnc3)n2)cc1 [Mocetinostat]
normalised viability [%]
Conditions	3 nM	10 nM	30 nM	100 nM	1000 nM	10000 nM
[1]	–	101	–	–	55.5	3.29
[2]	106	–	96.9	97.7	–	–
[3]	–	113	–	–	96.8	25.6
[4]	–	85.7	–	–	75.7	22.4
[5]	–	88	–	–	80.9	31.6
[6]	89.2	–	93.7	99.8	–	–
[7]	–	96.8	–	–	81.4	12.6
[8]	–	102	–	–	54.6	23.5
[9]	–	84.4	–	–	70.4	21.4
[10]	108	–	119	74	–	–
[11]	–	109	–	–	84.8	8.4
[12]	116	–	96.1	87.5	–	–
[13]	–	94	–	–	61.2	28.9
[14]	93.3	–	82	86.9	–	–
[15]	97.2	–	98.5	103	–	–
[16]	–	91	–	–	67.1	35.9
[17]	–	74.8	–	–	40.5	18.1
[18]	–	78.5	–	–	67	16.7

Conditions	EC50, CellTiter-Blue viability [nM]
[19]	4200
[20]	873
[21]	2020
[22]	2620
[23]	75.7
[24]	1770
